Reference: US20230416329A1, “A PEPTIDE WITH DISULFIDE BONDS AND INHIBITORY ACTIVITY AGAINST SERINE PROTEASES, DERIVED HYBRID PEPTIDES THEREOF, AND USES THEREOF” (INSTITUTE OF MATERIA MEDICA , CHINESE ACADEMY OF MEDICAL …, priority 2020, published 2023)
Each block holds one compound with its values, some of them ahead of it. Bridge positions count the residues as written; N and C are the ends. Peptide text beside a SMILES is read from it.

How the values were obtained:
trypsin = target: T1, trypsin (Bos taurus, UniProt P00760); assay: in vitro
T1 sequence (P00760 24-246): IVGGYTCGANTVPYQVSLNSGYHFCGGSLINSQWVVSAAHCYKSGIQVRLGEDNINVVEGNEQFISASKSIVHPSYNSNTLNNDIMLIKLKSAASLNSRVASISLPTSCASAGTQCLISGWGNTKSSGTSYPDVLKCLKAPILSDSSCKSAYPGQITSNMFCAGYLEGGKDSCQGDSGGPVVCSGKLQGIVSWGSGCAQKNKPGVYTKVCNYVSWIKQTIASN
Procedure, shortened: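 Peptides were preincubated for 5 min at 37 °C and then digested with 0.05 μg/μL trypsin solution (stock). Remaining intact peptide was quantified as RP-HPLC peak area.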

elastase = elastase (Sus scrofa, UniProt P00772); assay: in vitro
Chain of elastase (P00772 27-266): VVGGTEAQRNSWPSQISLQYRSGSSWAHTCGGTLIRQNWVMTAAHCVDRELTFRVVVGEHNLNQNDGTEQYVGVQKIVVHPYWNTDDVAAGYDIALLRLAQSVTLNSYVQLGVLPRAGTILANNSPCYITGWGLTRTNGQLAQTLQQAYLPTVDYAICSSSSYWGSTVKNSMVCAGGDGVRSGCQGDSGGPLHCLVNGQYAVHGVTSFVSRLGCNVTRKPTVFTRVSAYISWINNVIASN
Experimental: FIG. 19. […] At different time point, 25 μL aliquots was taken out, and 10% (v/v) TFA was added to terminate the reaction.
(§1) Mix by centrifugation at 8000 rpm for 30 seconds.
Arrange a certain volume of 0.5 μg/μL elastase solution in another sterile EP. Incubate the EP tubes containing peptides and enzymes at 37° C. for 5 min, and then add 4.5 μL of elastase solution to each EP tube containing peptides and mix well. Start timing and remove 25 μL of reaction solution at 1.5, 3.0, 4.5, 6.0, 9.0, 15.0, 30.0, and 60.0 min later, respectively. Add 3.75 μL of 10% TFA to terminate the reaction and mix well by centrifugation at 8000 rpm for 30 seconds.
Referring to the experimental method in Example 5, in vitro stability of salmon Calcitonin analogs with oral administration activity to the enzymatic hydrolysis by trypsin, chymotrypsin and elastase were performed.
Referring to the experimental method in Example 5, in vitro stability of IL-17A inhibitory peptides towards the enzymatic hydrolysis by trypsin, chymotrypsin and elastase were performed.

chymotrypsin = chymotrypsin (Bos taurus, UniProt P00766); assay: in vitro; details: for Remaining peak area (%)/chymotrypsin: 0 h; for remaining at 0.025 h, 60 μM / remaining at 0.05 h, 60 μM / remaining at 0.075 h, 60 μM / remaining at 0.1 h, 60 μM / remaining at 0.15 h, 60 μM / remaining at 0.25 h, 60 μM / remaining at 0.5 h, 60 μM / remaining at 1 h, 60 μM: isolated enzyme chymotrypsin, pH 7.8, Remaining peak area (%)/chymotrypsin
Procedure, shortened: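 Peptide and 0.05 μg/μL chymotrypsin were preincubated at 37 °C for 5 min, then mixed. Aliquots taken from 1.5 up to 60.0 min were quenched with 10% TFA, and remaining peptide was measured as RP-HPLC peak area.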

[1] = Stability of GLP-1 and its analogues in human serum; details: 25% (v/v) human serum
NEP24.11 = NEP24.11 (Homo sapiens, UniProt P08473); assay: Tolerance of GLP-1 and its analogues to NEP24.11 (RP-HPLC remaining peak area); type: in vitro ADME; details: peptide 30 μM, NEP24.11 1.0 ng/μL, 37° C.
Chain of NEP24.11 (P08473 whole entry): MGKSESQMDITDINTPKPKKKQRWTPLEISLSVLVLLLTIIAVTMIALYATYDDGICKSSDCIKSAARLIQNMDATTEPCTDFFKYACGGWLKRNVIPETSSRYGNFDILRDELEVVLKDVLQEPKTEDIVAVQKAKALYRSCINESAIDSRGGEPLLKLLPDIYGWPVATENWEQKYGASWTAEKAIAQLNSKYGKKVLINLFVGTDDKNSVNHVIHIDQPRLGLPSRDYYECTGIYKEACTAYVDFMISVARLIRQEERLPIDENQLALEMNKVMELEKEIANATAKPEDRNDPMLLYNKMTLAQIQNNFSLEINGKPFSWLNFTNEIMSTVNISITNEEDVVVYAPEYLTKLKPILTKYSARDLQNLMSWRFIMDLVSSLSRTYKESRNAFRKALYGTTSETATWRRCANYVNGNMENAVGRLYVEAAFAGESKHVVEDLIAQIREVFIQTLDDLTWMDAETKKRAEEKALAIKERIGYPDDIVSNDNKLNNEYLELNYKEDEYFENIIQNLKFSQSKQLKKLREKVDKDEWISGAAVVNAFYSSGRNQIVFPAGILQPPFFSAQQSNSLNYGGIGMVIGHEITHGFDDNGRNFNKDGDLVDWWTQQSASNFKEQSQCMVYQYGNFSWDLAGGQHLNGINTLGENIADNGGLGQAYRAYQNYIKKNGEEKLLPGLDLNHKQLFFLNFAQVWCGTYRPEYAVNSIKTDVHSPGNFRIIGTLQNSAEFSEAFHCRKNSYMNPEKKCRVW
Experimental: as §1
Arrange a certain volume of 0.04 μg/μL NEP24.11 enzyme solution in another sterile EP.

DPP-IV = DPP-IV (Homo sapiens, UniProt P27487); assay: Tolerance of GLP-1 and its analogues to DPP-IV (RP-HPLC remaining peak area); type: in vitro ADME; details: peptide 25 μM, DPP-IV 0.5 ng/μL, 37° C.
Chain of DPP-IV (P27487 whole entry, species assumed): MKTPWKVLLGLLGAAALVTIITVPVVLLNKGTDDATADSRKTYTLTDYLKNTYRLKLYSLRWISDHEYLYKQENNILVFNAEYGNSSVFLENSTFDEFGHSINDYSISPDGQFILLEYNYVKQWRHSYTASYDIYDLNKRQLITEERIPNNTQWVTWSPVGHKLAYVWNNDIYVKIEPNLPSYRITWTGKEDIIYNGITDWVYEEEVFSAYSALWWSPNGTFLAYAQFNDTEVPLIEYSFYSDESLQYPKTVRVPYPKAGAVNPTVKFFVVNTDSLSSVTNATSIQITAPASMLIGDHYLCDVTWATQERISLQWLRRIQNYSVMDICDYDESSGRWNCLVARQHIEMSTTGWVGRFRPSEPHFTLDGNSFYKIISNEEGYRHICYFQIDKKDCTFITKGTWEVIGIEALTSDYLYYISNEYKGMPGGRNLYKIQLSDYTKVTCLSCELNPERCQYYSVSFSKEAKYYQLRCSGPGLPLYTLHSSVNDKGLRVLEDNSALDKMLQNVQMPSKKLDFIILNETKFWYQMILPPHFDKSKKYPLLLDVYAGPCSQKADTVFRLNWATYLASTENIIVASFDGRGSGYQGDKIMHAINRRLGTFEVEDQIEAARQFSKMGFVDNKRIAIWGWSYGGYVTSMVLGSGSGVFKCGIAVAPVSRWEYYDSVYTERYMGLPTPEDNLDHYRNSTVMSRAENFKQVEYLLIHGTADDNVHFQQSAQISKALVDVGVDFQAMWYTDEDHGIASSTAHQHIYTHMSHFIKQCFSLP
Experimental: as §1
(2) Arrange a certain volume of 0.005 μg/μL DPP-IV solution in another sterile EP.

[2] = isolated enzyme trypsin, pH 7.8

- stability towards trypsin hydrolysis (in words) (trypsin): very stable towards trypsin
- Remaining peak area (%)/chymotrypsin (chymotrypsin): 100.0 ± 0.0%
- remaining at 0.025 h, 60 μM (chymotrypsin): 68.8 ± 5.5%
- remaining at 0.05 h, 60 μM (chymotrypsin): 59.2 ± 6.3%
- remaining at 0.075 h, 60 μM (chymotrypsin): 46.2 ± 5.2%
- remaining at 0.1 h, 60 μM (chymotrypsin): 41.4 ± 4.5%
- remaining at 0.15 h, 60 μM (chymotrypsin): 24.3 ± 1.2%
Structure (SMILES): CC[C@H](C)[C@H](N)C(=O)N[C@@H](Cc1c[nH]cn1)C(=O)N[C@H](C(=O)N[C@H](C(=O)N[C@H](C(=O)N1CCC[C@H]1C(=O)N[C@@H](C)C(=O)N[C@@H](CC(=O)O)C(=O)N[C@@H](CC(C)C)C(=O)N[C@@H](Cc1c[nH]c2ccccc12)C(=O)N[C@@H](CC(=O)O)C(=O)N[C@@H](Cc1c[nH]c2ccccc12)C(=O)N[C@H](C(=O)N[C@@H](CC(N)=O)C(=O)O)[C@@H](C)CC)[C@@H](C)CC)[C@@H](C)O)C(C)C [17A, reference compound]
- stability towards elastase hydrolysis (in words) (elastase): unstable towards chymotrypsin and elastase
- stability towards chymotrypsin hydrolysis (in words) (chymotrypsin): unstable towards chymotrypsin and elastase

- Remaining peak area (%)/chymotrypsin (chymotrypsin): 100.0 ± 0.0%
- remaining at 0.025 h, 60 μM (chymotrypsin): 85.5%
- remaining at 0.05 h, 60 μM (chymotrypsin): 93.8 ± 2.4%
- remaining at 0.075 h, 60 μM (chymotrypsin): 89.6%
- remaining at 0.1 h, 60 μM (chymotrypsin): 91.6 ± 5.3%
- remaining at 0.25 h, 60 μM (chymotrypsin): 79.8 ± 2.6%
- remaining at 0.5 h, 60 μM (chymotrypsin): 80.9%
- remaining at 1 h, 60 μM (chymotrypsin): 68%
Structure (SMILES): CC[C@H](C)[C@H](N)C(=O)N[C@@H](Cc1c[nH]cn1)C(=O)N[C@H](C(=O)N[C@H](C(=O)N[C@H](C(=O)N1CCC[C@H]1C(=O)N[C@@H](C)C(=O)N[C@@H](CC(=O)O)C(=O)N[C@@H](CC(C)C)C(=O)N[C@@H](Cc1c[nH]c2ccccc12)C(=O)N[C@@H](CC(=O)O)C(=O)N[C@@H](Cc1c[nH]c2ccccc12)C(=O)N[C@H](C(=O)N[C@@H](CC(N)=O)C(=O)NCC(=O)N[C@H](C(=O)N[C@H]1CSSC[C@@H](C(=O)N[C@@H](CCC(N)=O)C(=O)O)NC(=O)[C@H]([C@@H](C)CC)NC(=O)[C@@H]2CCCN2C(=O)[C@@H]2CCCN2C(=O)[C@H]([C@@H](C)CC)NC(=O)[C@H](CO)NC(=O)[C@H](C)NC(=O)[C@H]([C@@H](C)O)NC1=O)[C@@H](C)CC)[C@@H](C)CC)[C@@H](C)CC)[C@@H](C)O)C(C)C [17A-EC] (H-IHVTIPADLWDWINGICTASIPPICQ-OH; disulfide 17-25)
- stability towards elastase hydrolysis (in words) (elastase): tolerated to the degradation of corresponding serine proteases

Structure (SMILES): CC[C@H](C)[C@H](NC(=O)CNC(=O)[C@@H]1CCCN1C(=O)[C@@H](NC(=O)CNC(=O)[C@H](CO)NC(=O)CNC(=O)[C@@H](NC(=O)[C@H](CC(N)=O)NC(=O)[C@@H](NC(=O)[C@H](CCCNC(=N)N)NC(=O)[C@@H]1CCCN1C(=O)[C@H](Cc1ccc(O)cc1)NC(=O)[C@@H](NC(=O)[C@H](CCC(N)=O)NC(=O)[C@H](CC(C)C)NC(=O)[C@H](CCCCN)NC(=O)[C@H](Cc1c[nH]cn1)NC(=O)[C@H](C)NC(=O)[C@H](CCC(=O)O)NC(=O)[C@H](CCC(N)=O)NC(=O)[C@H](CO)NC(=O)[C@H](CC(C)C)NC(=O)[C@H](CCCCN)NC(=O)CNC(=O)[C@H](CC(C)C)NC(=O)CNC(=O)[C@@H]1CSSC[C@H](N)C(=O)N[C@@H](CO)C(=O)N[C@@H](CC(N)=O)C(=O)N[C@@H](CC(C)C)C(=O)N[C@@H](CO)C(=O)N[C@@H]([C@@H](C)O)C(=O)N1)[C@@H](C)O)[C@@H](C)O)[C@@H](C)O)[C@@H](C)O)C(=O)N[C@H]1CSSC[C@@H](C(=O)N[C@@H](CCC(N)=O)C(=O)O)NC(=O)[C@H]([C@@H](C)CC)NC(=O)[C@@H]2CCCN2C(=O)[C@@H]2CCCN2C(=O)[C@H]([C@@H](C)CC)NC(=O)[C@H](CO)NC(=O)[C@H](C)NC(=O)[C@H]([C@@H](C)O)NC1=O [Cal-EC]
- stability towards elastase hydrolysis (in words) (elastase): resistant to the corresponding protease degradation
- stability towards chymotrypsin hydrolysis (in words) (chymotrypsin): certain tolerance to chymotrypsin
- Remaining peak area (%)/chymotrypsin (chymotrypsin): 100.0 ± 0.0%
- remaining at 0.025 h, 60 μM (chymotrypsin): 95.4%
- remaining at 0.05 h, 60 μM (chymotrypsin): 31.3%
- remaining at 0.1 h, 60 μM (chymotrypsin): 29.3 ± 1.4%
- remaining at 0.15 h, 60 μM (chymotrypsin): 27.8 ± 0.2%
- remaining at 0.25 h, 60 μM (chymotrypsin): 22.3%
- remaining at 0.5 h, 60 μM (chymotrypsin): 21.4%
- remaining at 1 h, 60 μM (chymotrypsin): 19.3%

- remaining at 0.025 h, 60 μM (trypsin; [2]): 90.3 ± 1.9%
- remaining at 0.05 h, 60 μM (trypsin; [2]): 92.2 ± 3.7%
- remaining at 0.075 h, 60 μM (trypsin; [2]): 97.3 ± 1%
- remaining at 0.1 h, 60 μM (trypsin; [2]): 94 ± 1.5%
- remaining at 0.15 h, 60 μM (trypsin; [2]): 94.9 ± 1.8%
- remaining at 0.25 h, 60 μM (trypsin; [2]): 88.7 ± 3%
- remaining at 0.5 h, 60 μM (trypsin; [2]): 90.8 ± 3.6%
- remaining at 1 h, 60 μM (trypsin; [2]): 88.4 ± 3.9%
- remaining at 0.025 h, 60 μM (chymotrypsin): 54.9 ± 3.8%
- remaining at 0.05 h, 60 μM (chymotrypsin): 43.3 ± 7%
- remaining at 0.075 h, 60 μM (chymotrypsin): 34.5 ± 7.4%
- remaining at 0.1 h, 60 μM (chymotrypsin): 27.1 ± 2.9%
- remaining at 0.15 h, 60 μM (chymotrypsin): 17.4 ± 4.9%
- Remaining peak area (%)/human serum ([1]; 0.0 h, peptide 0.03 mM, 37° C.): 100.0 ± 0.0%
- serum stability (in words) [1]: good serum stability
- remaining at 0.5 h, 0.03 mM ([1]; human, pH 7): 80.4 ± 4%
- remaining at 2 h, 0.03 mM ([1]; human, pH 7): 53.6 ± 7.6%
- remaining at 4 h, 0.03 mM ([1]; human, pH 7): 46.5 ± 3.5%
- remaining at 8 h, 0.03 mM ([1]; human, pH 7): 7.2 ± 1.3%
- remaining at 12 h, 0.03 mM ([1]; human, pH 7): 9.1 ± 3.9%
Structure (SMILES): CC[C@H](C)[C@H](NC(=O)[C@H](Cc1ccccc1)NC(=O)[C@H](CCC(=O)O)NC(=O)[C@H](CCCCN)NC(=O)[C@H](C)NC(=O)[C@H](C)NC(=O)[C@H](CCC(N)=O)NC(=O)CNC(=O)[C@H](CCC(=O)O)NC(=O)[C@H](CC(C)C)NC(=O)[C@H](Cc1ccc(O)cc1)NC(=O)[C@H](CO)NC(=O)[C@H](CO)NC(=O)[C@@H](NC(=O)[C@H](CC(=O)O)NC(=O)[C@H](CO)NC(=O)[C@@H](NC(=O)[C@H](Cc1ccccc1)NC(=O)[C@@H](NC(=O)CNC(=O)[C@H](CCC(=O)O)NC(=O)[C@H](C)NC(=O)[C@H](Cc1c[nH]cn1)NC(=O)CNC(=O)CNC(=O)[C@@H](NC(=O)[C@@H]1CCCN1C(=O)[C@@H](NC(=O)CN)[C@@H](C)CC)[C@@H](C)CC)[C@@H](C)O)[C@@H](C)O)C(C)C)C(=O)N[C@@H](C)C(=O)N[C@@H](Cc1c[nH]c2ccccc12)C(=O)N[C@@H](CC(C)C)C(=O)N[C@H](C(=O)N[C@@H](CCCCN)C(=O)NCC(=O)N[C@@H](CCCNC(=N)N)C(=O)NCC(=O)NCC(=O)N[C@@H](CCCCN)C(=O)NCC(=O)N[C@H]1CSSC[C@@H](C(=O)N[C@@H](Cc2ccccc2)C(=O)O)NC(=O)[C@H]([C@@H](C)CC)NC(=O)[C@@H]2CCCN2C(=O)[C@@H]2CCCN2C(=O)[C@H]([C@@H](C)CC)NC(=O)[C@H](CO)NC(=O)[C@H](CCCCN)NC(=O)[C@H]([C@@H](C)O)NC(=O)[C@H](C)NC(=O)[C@H](CCCNC(=N)N)NC(=O)CNC1=O)C(C)C [D-GLP-1-BT9]
- Remaining peak area (%)/NEP24.11 (NEP24.11; 0.0 h): 100.0 ± 0.0%
- remaining at 0.5 h, 30 μM (NEP24.11; isolated NEP24.11 enzyme in buffer, pH 7.4, 0.5 h): 88.4 ± 2.3%
- remaining at 2 h, 30 μM (NEP24.11; isolated NEP24.11 enzyme in buffer, pH 7.4, 2.0 h): 79.3 ± 2.6%
- remaining at 4 h, 30 μM (NEP24.11; isolated NEP24.11 enzyme in buffer, pH 7.4, 4.0 h): 69.8 ± 2.6%
- remaining at 8 h, 30 μM (NEP24.11; isolated NEP24.11 enzyme in buffer, pH 7.4, 8.0 h, read-out: Remaining peak area (%)/NEP24.11): 58.6 ± 0.7%
- Remaining peak area (%)/DPP-IV (DPP-IV; 0.0 h): 100.0 ± 0.0%
- remaining at 0.5 h, 25 μM (DPP-IV; isolated DPP-IV enzyme in buffer, pH 8, 0.5 h): 101 ± 1.2%
- remaining at 2 h, 25 μM (DPP-IV; isolated DPP-IV enzyme in buffer, pH 8, 2.0 h): 98.7 ± 0.6%
- remaining at 4 h, 25 μM (DPP-IV; isolated DPP-IV enzyme in buffer, pH 8, 4.0 h): 98.8 ± 2.3%
- remaining at 8 h, 25 μM (DPP-IV; isolated DPP-IV enzyme in buffer, pH 8, 8.0 h): 100 ± 6.5%
- remaining at 12 h, 25 μM (DPP-IV; isolated DPP-IV enzyme in buffer, pH 8, 12.0 h): 94 ± 2%
